Here are results for 31 compounds from US9365830B2, “Agents and methods for inhibiting human pluripotent stem cell growth” (VIACYTE, INC., priority 2010, dated 2016).

Where a name gives a salt, the structure may show the parent alone. Read-outs that look alike come from different tables or passages of the source. A value given as a limit tells only on which side of the number the result lay.

Holding throughout (format): cell-based, human
One assay deals with hESCs. Kind of assay: Secondary screen, lowest effective dose on hESCs. The settings on record: lowest concentration that elicited cytotoxicity, range 0.1 to 50 μM, read-out: ED hESC (lowest effective dose). As to the method:
To expand the number of potential candidate hESC cytotoxic and inhibitory compounds, the complete LOPAC1280™ collection (containing 1,280 compounds) was screened. In the primary screen, cytotoxicity was tested on undifferentiated hESCs (about 3×10^4 BG01 cells) in 16 standard 96-well trays, in DC-HAIF defined medium on growth factor-reduced MATRIGEL™ diluted 1:200, which were fed daily (FIG. 7A). 10 μM of each compound was added to the hESCs one day after plating, and the cells were cultured for an additional 2 days. Plates were then fixed and stained for alkaline phosphatase (AP) to identify relative decreases in proliferation or growth of hESCs (as reduced AP staining), indicative of lower proportions of hESCs. See the circled wells in FIG. 7A.
(§1) Using a range of different concentrations from 0.1 to 50 μM, the forty compounds in Table 6 were re-screened (secondary screen) using hESCS and NPCs. The effective dose (ED) was defined as the lowest concentration of a compound that elicited cytotoxicity during the secondary screen. […] The darker wells were indicative of the increased numbers or percentages of proliferating or growing pluripotent stem cells in the wells. In addition, these 40 compounds were screened on differentiating definitive endoderm (DE) cell cultures in 96-well plate impedance assays (described above) to determine which of these compounds were not cytotoxic to definitive endoderm cells at the lowest effective dose on either hESC or NPC. […] See “ACEA DE” column in Table 6.

In a further assay the test system is NPCs. Kind of assay: Secondary screen, lowest effective dose on NPCs. The settings on record: lowest concentration that elicited cytotoxicity, range 0.1 to 50 μM, read-out: ED NPC (lowest effective dose). As to the method: In addition, the complete LOPAC1280™ collection was also screened for effects on neural progenitor cells (NPCs) that were derived from the hESCs. Neural progenitors were plated in serum-free MedII conditioned medium at 6×10^4 cells/well and fed daily. Two days after plating, 10 μM of each compound was added and the cells were cultured for an additional 2 days. […] Reduced crystal violet staining was indicative of lower proportions of NPCs. See circled wells in FIG. 7B. The left and right columns of the LOPAC1280™ plates from which the compounds were dispensed were empty and served as untreated controls. […] See Table 6 below listing the name and class of activity of each candidate compound identified in this screen (except chelerythrine chloride, which is listed in Table 5). ChCl was not included in the subsequent round of screening. Therefore only 40 compounds were tested further.
as §1

The test system of assay [1] is differentiating definitive endoderm (DE) cell cultures. Kind of assay: 96-well plate impedance assay (ACEA) on differentiating definitive endoderm at lowest effective dose. Further details: key: Viable: Compounds that did not appear to be cytotoxic toward differentiating DE cultures were marked as “viable”, meaning that the compound did not affect the survival, growth, proliferation or differentiation of the differentiated cells. The settings on record: at the lowest effective dose on either hESC or NPC.
Description: The impedance assay on the hESCs using the compounds in Table 4 above gave greater than twenty (20) hits. However, the ideal candidate compound of the present invention should not only be inhibitory or cytotoxic to human pluripotent stem cells, such as hESCs or hIPSCs, but should at the same time have no effect on cell viability of differentiated or differentiating cell populations including Stage 1, 2, 3, 4 and 5 type cells cultures (definitive endoderm, foregut endoderm, posterior foregut, pancreatic endoderm and endocrine cells, respectively). […] Approximately 3×10^4 hES cells were plated per well and grown for 24 hrs in DC-HAIF defined medium (i.e. StemPro® hESC SFM medium (Life Technologies, Carlsbad, Calif.). Stage 1 or definitive endoderm differentiation was then induced by changing the medium and culturing in RPMI, 100 ng/mL Activin A, and 10 ng/mL of FGF2. […] of GSK-3 beta Inhibitor 15 (Calbiochem #361558) as added to the culture for the first 24 hours of differentiation only. 10 μM of each of the candidate compounds were added about 48 hours or 2 days after differentiation was induced (see FIGS. 3 C & D, large arrowhead), and the cells were cultured for an additional 2 days.
as §1

Turning to Vinblastine sulfate salt, the minimal effective concentration in the assay with hESCs and with NPCs was <0.1 µM in each case.
For the compound `COc1cc([C@@H]2c3cc4c(cc3[C@H](O)[C@H]3COC(=O)[C@H]23)OCO4)cc(OC)c1OC` [Podophyllotoxin], the minimal effective concentration in the assay with hESCs (Homo sapiens) is < 0.1 µM. The “ACEA DE” value in assay [1] is recorded as “Viable”.
Take `COc1ccc(CCCOC(Cn2ccnc2)c2ccc(OC)cc2)cc1` (stereo not drawn) [SKF 96365]: the minimal effective concentration in the assay on hESCs (Homo sapiens) stood at 25 µM; in the assay on NPCs (Homo sapiens, 48 h), 5 µM. The “ACEA DE” value in assay [1] is given as “Viable”.
For the compound `C[C@H]1CCC/C=C/[C@@H]2C[C@H](O)C[C@H]2[C@H](O)/C=C/C(=O)O1` [Brefeldin A from Penicillium], the minimal effective concentration in the assay on hESCs and in the assay on NPCs was <0.1 µM each time.
As for `COc1cc(NS(C)(=O)=O)ccc1Nc1c2ccccc2nc2ccccc12` [Amsacrine hydrochloride], the minimal effective concentration with hESCs (Homo sapiens) amounted to 1 µM; in the assay with NPCs (Homo sapiens, 48 h), 0.1 µM.
As to `Oc1ccccc1O` [Pyrocatechol], the minimal effective concentration came out at 5 µM in the assay with hESCs (Homo sapiens) and 5 µM in the assay with NPCs (Homo sapiens, 48 h). The “ACEA DE” value in assay [1] was “Viable”.
As to `C[C@@H]1O[C@@H](O[C@H]2C[C@@H](O)[C@]3(CO)[C@H]4[C@H](O)C[C@]5(C)[C@@H](C6=CC(=O)OC6)CC[C@]5(O)[C@@H]4CC[C@]3(O)C2)[C@H](O)[C@H](O)[C@H]1O` [Ouabain], the minimal effective concentration is < 0.1 µM with hESCs (Homo sapiens) and < 0.1 µM in the assay on NPCs (Homo sapiens, 48 h).
On to `Oc1cc2c(cc1O)CN(C(=S)NCCc1ccc(Cl)cc1)CCC2` [Capsazepine], for which the minimal effective concentration is 5 µM in the assay with hESCs (Homo sapiens) and 25 µM in the assay with NPCs (Homo sapiens, 48 h). Moreover, the “ACEA DE” value in assay [1] is “Viable”.
In the same order, the values of `CCN(CC)CCCC(C)Nc1c2ccc(Cl)cc2nc2ccc(OC)cc12` (stereo not drawn) [Quinacrine dihydrochloride] are 10 µM, 25 µM and “Viable”.
Regarding `CNC(=O)[C@H]1O[C@@H](n2cnc3c(NCc4cccc(I)c4)ncnc32)[C@H](O)[C@@H]1O` [IB-MECA], the minimal effective concentration with hESCs was 50 µM; in the assay on NPCs, >50 µM.
In the case of `CC1=C(/C=C/C(C)=C/C=C/C(C)=C/C(=O)Nc2ccc(O)cc2)C(C)(C)CCC1` [Retinoic acid p-hydroxyanilide], the minimal effective concentration with hESCs is reported as 1 µM; in the assay on NPCs it was 5 µM. The “ACEA DE” value in assay [1] was “Viable”.
Consider `N` [Ammonium], for which the minimal effective concentration in the assay with hESCs was 10 µM; in the assay with NPCs, >50 µM. Besides, the “ACEA DE” value in assay [1] is “Viable”.
For `COCC(=O)O[C@]1(CCN(C)CCCc2nc3ccccc3[nH]2)CCc2cc(F)ccc2[C@@H]1C(C)C` [Mibefradil dihydrochloride], the minimal effective concentration in the assay on hESCs (Homo sapiens) amounted to 25 µM; with NPCs (Homo sapiens, 48 h), 25 µM.
Take `CNc1ccc2oc(C[C@H]3O[C@@]4(CC[C@H]3C)O[C@H]([C@H](C)C(=O)c3ccc[nH]3)[C@H](C)C[C@H]4C)nc2c1C(=O)O` [Calcimycin]: the minimal effective concentration with hESCs (Homo sapiens) is 1 µM; with NPCs (Homo sapiens, 48 h) it was < 0.1 µM.
For `Ic1ccccc1CNC1C2CCN(CC2)C1C(c1ccccc1)c1ccccc1.O=C(O)C(=O)O` [L-703,606 oxalate], the minimal effective concentration in the assay on hESCs was 25 µM; in the assay with NPCs, >50 µM.
In the case of `CCCCCCCC/C=C\CCCCCCCC(=O)NCCc1ccc(O)c(O)c1` [N-Oleoyldopamine], the minimal effective concentration in the assay with hESCs (Homo sapiens) was found to be 5 µM; in the assay on NPCs (Homo sapiens, 48 h), 1 µM. In assay [1], the “ACEA DE” value was “Viable”.
In the same order, the values of `Oc1cc(-c2ccccc2)nc2nc(Cl)ccc12` [7-Chloro-4-hydroxy-2-phenyl-1,8-naphthyridine] are 5 µM, 5 µM and “Viable”.
In the case of `c1ccc2c(c1)[I+]c1ccccc1-2` [Diphenyleneiodonium chloride], the minimal effective concentration in the assay with hESCs (Homo sapiens) was 0.1 µM; in the assay on NPCs (Homo sapiens, 48 h), < 0.1 µM.
Consider `N=C(N)c1ccc(OCCCCCOc2ccc(C(=N)N)cc2)cc1` [Pentamidine isethionate], for which the minimal effective concentration in the assay on hESCs (Homo sapiens) is 1 µM; in the assay on NPCs (Homo sapiens, 48 h) it was 25 µM. Further, in assay [1], the “ACEA DE” value is “Viable”.
On to `CC1(C)CCC2=C(O1)c1ccccc1C(=O)C2=O` [beta-Lapachone], for which the minimal effective concentration was 5 µM in the assay on hESCs (Homo sapiens) and 5 µM in the assay on NPCs (Homo sapiens, 48 h).
With `C=CC1=C(C)c2cc3[nH]c(cc4nc(cc5[nH]c(cc1n2)c(C)c5CCC(=O)O)C(CCC(=O)O)=C4C)c(C)c3C=C` [Protoporphyrin IX disodium], the minimal effective concentration with hESCs (Homo sapiens) was 10 µM; in the assay on NPCs (Homo sapiens, 48 h), > 50 µM. In assay [1], the “ACEA DE” value is on record as “Viable”.
In the case of `C[C@@H]1O[C@@H](O[C@H]2C[C@@H](O)[C@]3(CO)[C@H]4[C@H](O)C[C@]5(C)[C@@H]([C@@H]6COC(=O)C6)CC[C@]5(O)[C@@H]4CC[C@]3(O)C2)[C@H](O)[C@H](O)[C@H]1O` [Dihydroouabain], the minimal effective concentration in the assay on hESCs is on record as 1 µM; with NPCs it was <0.1 µM.
Turning to `CC(C)(C)c1ccc(C(O)CCCN2CCC(C(O)(c3ccccc3)c3ccccc3)CC2)cc1` (stereo not drawn) [Terfenadine], the minimal effective concentration is 25 µM in the assay with hESCs (Homo sapiens) and 10 µM with NPCs (Homo sapiens, 48 h).
For `Nc1ccc(CCN2CCN(c3cccc(C(F)(F)F)c3)CC2)cc1` [PAPP], the minimal effective concentration in the assay with hESCs is given as 25 µM; in the assay on NPCs, >50 µM.
With `Cc1cc(N)c2ccccc2[n+]1CCCCCCCCCC[n+]1c(C)cc(N)c2ccccc21` [Dequalinium chloride hydrate], the minimal effective concentration in the assay with hESCs (Homo sapiens) came out at 5 µM; with NPCs (Homo sapiens, 48 h), 5 µM.
Turning to `CC(C)[C@H]1c2ccc(F)cc2CC[C@@]1(CCN(C)CCCc1nc2ccccc2[nH]1)OC(=O)C1CC1` [NNC 55-0396], the minimal effective concentration stood at 25 µM with hESCs and 5 µM in the assay with NPCs.
As for `CC[C@H]1CN2CCc3cc(OC)c(OC)cc3[C@@H]2C[C@@H]1C[C@H]1NCCc2cc(OC)c(OC)cc21` [Emetine dihydrochloride hydrate], the minimal effective concentration in the assay with hESCs (Homo sapiens) is < 0.1 µM; with NPCs (Homo sapiens, 48 h), 0.1 µM.
The corresponding values for `COC(=O)C1=C(C)NC(C)=C(C(=O)OC(C)(C)CN(C)CCC(c2ccccc2)c2ccccc2)C1c1cccc([N+](=O)[O-])c1` (stereo not drawn) [Lercanidipine hydrochloride] are 10 µM and 10 µM.
Take `CC[n+]1c(/C=C/C=C2/N(C)c3ccccc3C2(C)C)sc2ccccc21.[I-]` [AC-93253 iodide]: the minimal effective concentration in the assay with hESCs is 5 µM; in the assay with NPCs, <0.1 µM.
On to `COc1cc2c(cc1O)CC[C@@H]1[C@@H]2CC[C@]2(C)[C@@H](O)CC[C@@H]12` [2-methoxyestradiol], for which the minimal effective concentration in the assay with hESCs was determined as 10 µM; with NPCs, 1 µM.
Turning to `Cc1nc(-c2ccc(-c3ccc(C(=O)N4CCc5cc6c(cc54)C4(CCN(C)CC4)CO6)cc3)c(C)c2)no1` [SB 224289 hydrochloride], the minimal effective concentration in the assay with hESCs (Homo sapiens) amounted to 25 µM; in the assay on NPCs (Homo sapiens, 48 h), 50 µM.
